Data taken from the supplement of paper PMC10307832.

How the values were obtained:
Assay in all cases: relative viability (nuclei count vs DMSO), 5 days (fraction); higher = more cells survive
[1] = compound: Cc1ccc2nc(NCCN)c3ncc(C)n3c2c1 + O=C(c1cc(Cc2n[nH]c(=O)c3ccccc23)ccc1F)N1CCN(C(=O)C2CC2)CC1 [Olaparib] (partner 8 µM)
In short: (§1)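 Lung cancer cell lines, seeded in 1536-well plates, were treated the following day by pin tool with a single drug or with five library-drug doses (not always all listed) in √10 steps on top of a fixed anchor-drug dose. Cells were fixed and nuclei stained in one step after 5 days, and nuclei were counted. Relative viability is the nuclei count for treated wells divided by that for vehicle wells, reported as medians of duplicate plates.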

[2] = compound: Cc1ccc2nc(NCCN)c3ncc(C)n3c2c1 + CS(=O)(=O)CCNCc1ccc(-c2ccc3ncnc(Nc4ccc(OCc5cccc(F)c5)c(Cl)c4)c3c2)o1 [Lapatinib] (partner 2 µM)
In short: as §1

[3] = compound: Cc1ccc2nc(NCCN)c3ncc(C)n3c2c1 + Cc1cc(Nc2cc(N3CCN(C)CC3)nc(Sc3ccc(NC(=O)C4CC4)cc3)n2)n[nH]1 [Tozasertib] (partner 0.1 µM)
In short: as §1

[4] = compound: Cc1ccc2nc(NCCN)c3ncc(C)n3c2c1 + CC(C)C[C@H](NC(=O)[C@H](Cc1ccccc1)NC(=O)c1cnccn1)B(O)O [Bortezomib] (partner 0.002 µM)
In short: as §1

Row | Cell Line | relative viability ([1]; first compound 0.04 µM) | relative viability ([1]; first compound 0.1265 µM) | relative viability ([1]; first compound 0.4 µM) | relative viability ([1]; first compound 1.265 µM) | relative viability ([1]; first compound 4 µM) | relative viability ([2]; first compound 0.04 µM) | relative viability ([2]; first compound 0.1265 µM) | relative viability ([2]; first compound 0.4 µM) | relative viability ([2]; first compound 1.265 µM) | relative viability ([2]; first compound 4 µM) | relative viability ([3]; first compound 0.04 µM) | relative viability ([3]; first compound 0.1265 µM) | relative viability ([3]; first compound 0.4 µM) | relative viability ([3]; first compound 1.265 µM) | relative viability ([3]; first compound 4 µM) | relative viability ([4]; first compound 0.04 µM) | relative viability ([4]; first compound 0.1265 µM) | relative viability ([4]; first compound 0.4 µM) | relative viability ([4]; first compound 1.265 µM) | relative viability ([4]; first compound 4 µM)
1 | NCI-H2009 | 0.666 | 0.661 | 0.666 | 0.71 | 0.549 | 1.03 | 0.958 | 0.88 | 0.928 | 0.836 | 0.754 | 0.725 | 0.72 | 0.734 | 0.541 | 1.06 | 1.01 | 0.987 | 0.97 | 0.875
2 | NCI-H2405 | 0.91 | 0.795 | 0.927 | 0.825 | 0.779 | 1.06 | 1.06 | 1.06 | 1.08 | 0.835 | 0.731 | 0.723 | 0.708 | 0.639 | 0.68 | 1.03 | 1.03 | 0.964 | 0.969 | 0.918
3 | NCI-H1755 | 0.859 | 0.878 | 0.835 | 0.903 | 0.791 | 1.1 | 1.03 | 0.934 | 1.1 | 1.04 | 0.552 | 0.565 | 0.536 | 0.511 | 0.524 | 1.02 | 0.99 | 0.897 | 0.956 | 1.02
4 | HCC-78 | 0.746 | 0.861 | 0.655 | 0.587 | 0.766 | 1.03 | 0.738 | 0.775 | 0.861 | 0.697 | 0.4 | 0.375 | 0.291 | 0.403 | 0.388 | 0.52 | 0.424 | 0.365 |  | 0.444
5 | LOU-NH91 | 0.921 | 0.92 | 0.877 | 0.868 | 0.865 | 0.784 | 0.846 | 0.782 | 0.777 | 0.766 | 0.654 | 0.628 | 0.638 | 0.626 | 0.617 | 0.494 | 0.587 | 0.556 | 0.529 | 0.423
6 | NCI-H3122 | 0.653 | 0.67 | 0.507 | 0.582 | 0.579 | 1.06 | 0.994 | 0.997 | 1.12 | 1 | 0.436 | 0.391 | 0.412 | 0.352 | 0.293 | 0.957 | 1.03 | 1.05 | 0.985 | 1.1
7 | HCC-827 | 0.689 | 0.73 | 0.661 | 0.639 | 0.607 | 0.21 | 0.207 | 0.191 | 0.195 | 0.209 | 0.465 | 0.433 | 0.454 | 0.459 | 0.425 | 1.12 | 1.05 | 0.958 | 1.09 | 1.01
8 | SK-LU-1 | 0.515 | 0.422 | 0.513 | 0.455 | 0.484 | 1.06 | 0.951 | 0.889 | 0.948 | 0.852 | 0.378 | 0.373 | 0.392 | 0.339 | 0.308 | 1.39 | 1.28 | 0.989 | 1.29 | 1.02
9 | NCI-H1975 | 0.791 | 0.81 | 0.809 | 0.704 | 0.682 | 1.01 | 0.925 | 0.935 | 0.95 | 0.849 | 0.818 | 0.866 | 0.824 | 0.639 | 0.56 | 0.363 | 0.384 | 0.428 | 0.375 | 0.407
